One molecule from ChEMBL document CHEMBL5500404, “Discovery and Development of NLRP3 Inhibitors Targeting the LRR Domain to Disrupt NLRP3-NEK7 Interaction for the Treatment of Rheumatoid Arthritis” (J Med Chem, 2024) can be followed below.

Calls of active or inactive are those of the source.

A short description of data set [1]: Half life in Sprague-Dawley rat at 20 mg/kg, IG measured upto 1440 mins by LC-MS/MS analysis. It is filed as ADME, organism-based. Conditions: in vivo, po.
Data set [2] is described as follows: MRT (0 to t) in Sprague-Dawley rat at 20 mg/kg, ip measured upto 720 mins by LC-MS/MS analysis. Conditions: in vivo. It is filed as ADME, organism-based.
Data set [3] in a line: Apparent volume of distribution during terminal phase in Sprague-Dawley rat at 20 mg/kg, ip measured upto 720 mins by LC-MS/MS analysis. It is filed as ADME, organism-based. Conditions: in vivo, read-out: Vz/F.
The subject of data set [4] is Rattus norvegicus. Put plainly: Anti-inflammatory activity against complete Freund's adjuvant (CFA)-induced arthritis rat model assessed as decrease in serum IL-1beta level at 20 to 80 mg/kg, ip treated after 17 days of CFA challenge measured after 18 days (day 17 to 34) by ELISA relative to model group. It is filed as functional, organism-based. As to conditions: dose 20-80 mg/kg, time 18.0 day. (An ELISA detects its analyte on a solid surface through an enzyme-linked reagent.)

Data set [5] can be described thus: AUC (0 to infinity) in Sprague-Dawley rat at 20 mg/kg, ip measured upto 720 mins by LC-MS/MS analysis. It is filed as ADME, organism-based. As to conditions: in vivo, 12 h.
Data set [6] can be described thus: Tmax in Sprague-Dawley rat at 20 mg/kg, IG measured upto 1440 mins by LC-MS/MS analysis. Conditions: in vivo, po. It is filed as ADME, organism-based.
In data set [7] the test system is THP-M. Put plainly: Effect on ASC (apoptosis-related speck-like protein containing a CARD) level in LPS/nigericin-induced human THP-M cells assessed as inhibition of pro-IL-1beta level at 20 to 60 uM pretreated for 24 hrs followed by stimulated with LPS for 3 hrs and ATP for 1 hr by Western blot analysis relative to control. It is filed as functional, cell-based. As to conditions: dose 20-60 µM, time 28.0 hrs. A general note: Immunoblotting shows a protein as a band on a membrane.

A short description of data set [8]: Apparent volume of distribution during terminal phase in Sprague-Dawley rat at 20 mg/kg, IG measured upto 1440 mins by LC-MS/MS analysis. It is filed as ADME, organism-based. As to conditions: in vivo, po, read-out: Vz/F.
Data set [9] can be described thus: Apparent clearance during terminal phase in Sprague-Dawley rat at 20 mg/kg, IG measured upto 1440 mins by LC-MS/MS analysis. Conditions: in vivo, po. It is filed as ADME, organism-based.
A short description of data set [10]: Bioavailability in Sprague-Dawley rat at 20 mg/kg, ip measured upto 720 mins by LC-MS/MS analysis. It is filed as ADME, organism-based. Conditions: in vivo.
Data set [11] can be described thus: MRT (0 to infinity) in Sprague-Dawley rat at 20 mg/kg, ip measured upto 720 mins by LC-MS/MS analysis. As to conditions: in vivo. It is filed as ADME, organism-based.
In data set [12] the test system is Rattus norvegicus. Put plainly: Anti-inflammatory activity against complete Freund's adjuvant (CFA)-induced arthritis rat model assessed as reduction in body weight at 20 to 80 mg/kg, ip treated after 17 days of CFA challenge measured after 18 days (day 17 to 34) relative to control. It is filed as functional, organism-based. Conditions: dose 20-80 mg/kg, time 18.0 day.

For data set [13], the system named is THP-M. As to the kind of experiment: Inhibition of NLRP3 and […] protein-protein interaction in human THP-M cells assessed as suppression activation of NLRP3 inflammasome by affecting ASC oligomerization at 10 to 50 uM pretreated for 24 hrs followed by stimulated with LPS for 3 hrs and ATP for 1 hr by co-IP analysis. It is filed as cell-based. As to conditions: dose 10-50 µM, time 28.0 hrs.

The nature of data set [14]: AUC (0 to t) in Sprague-Dawley rat at 20 mg/kg, ip measured upto 720 mins by LC-MS/MS analysis. As to conditions: in vivo. It is filed as ADME, organism-based.
Data set [15] has as its target T1, NACHT, LRR and PYD domains-containing protein 1 (Homo sapiens) (UniProt Q9C000).
T1 sequence (whole entry): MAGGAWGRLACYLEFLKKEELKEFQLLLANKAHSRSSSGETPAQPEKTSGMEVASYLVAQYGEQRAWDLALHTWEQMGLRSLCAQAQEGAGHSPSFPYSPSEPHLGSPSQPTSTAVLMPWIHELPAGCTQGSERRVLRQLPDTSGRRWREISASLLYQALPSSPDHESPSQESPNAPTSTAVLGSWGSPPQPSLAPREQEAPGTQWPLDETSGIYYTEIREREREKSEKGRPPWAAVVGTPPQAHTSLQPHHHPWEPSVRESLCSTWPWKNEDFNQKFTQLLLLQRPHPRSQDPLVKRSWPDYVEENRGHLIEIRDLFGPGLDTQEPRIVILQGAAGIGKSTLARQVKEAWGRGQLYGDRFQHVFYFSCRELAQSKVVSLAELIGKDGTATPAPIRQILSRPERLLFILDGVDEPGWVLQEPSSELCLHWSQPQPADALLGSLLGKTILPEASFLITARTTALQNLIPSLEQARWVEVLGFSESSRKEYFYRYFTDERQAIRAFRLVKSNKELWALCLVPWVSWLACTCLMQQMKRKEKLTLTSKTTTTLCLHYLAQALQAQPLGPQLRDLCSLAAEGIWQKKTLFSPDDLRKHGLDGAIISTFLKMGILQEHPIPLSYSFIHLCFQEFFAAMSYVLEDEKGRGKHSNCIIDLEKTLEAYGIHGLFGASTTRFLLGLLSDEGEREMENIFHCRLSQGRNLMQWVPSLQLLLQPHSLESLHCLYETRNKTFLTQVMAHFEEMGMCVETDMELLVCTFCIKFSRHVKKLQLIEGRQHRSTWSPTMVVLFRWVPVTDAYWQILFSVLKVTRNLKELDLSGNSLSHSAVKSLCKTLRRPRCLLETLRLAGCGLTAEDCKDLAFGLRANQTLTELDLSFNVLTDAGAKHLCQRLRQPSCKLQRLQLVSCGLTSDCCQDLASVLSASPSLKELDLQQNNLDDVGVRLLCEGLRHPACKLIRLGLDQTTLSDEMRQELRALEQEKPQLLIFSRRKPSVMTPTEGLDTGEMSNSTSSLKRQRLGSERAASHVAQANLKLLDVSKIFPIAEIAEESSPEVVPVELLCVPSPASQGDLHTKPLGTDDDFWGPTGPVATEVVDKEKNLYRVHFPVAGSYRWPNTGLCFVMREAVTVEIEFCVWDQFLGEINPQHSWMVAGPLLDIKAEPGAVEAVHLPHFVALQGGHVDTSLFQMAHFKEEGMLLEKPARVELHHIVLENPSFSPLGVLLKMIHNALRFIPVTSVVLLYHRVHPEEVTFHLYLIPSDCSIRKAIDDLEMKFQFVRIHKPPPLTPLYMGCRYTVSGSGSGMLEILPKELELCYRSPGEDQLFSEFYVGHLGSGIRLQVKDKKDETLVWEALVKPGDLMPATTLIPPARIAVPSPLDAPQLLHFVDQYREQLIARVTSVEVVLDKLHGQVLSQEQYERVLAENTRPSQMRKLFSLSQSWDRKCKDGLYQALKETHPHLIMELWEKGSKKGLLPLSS
Put plainly: Inhibition of NLRP1 inflammasome in Val-boroPro-induced human THP-M cells assessed as inhibition of IL-1beta level at 20 to 60 uM pretreated for 24 hrs followed by stimulated with LPS by ELISA. It is filed as cell-based. Conditions: dose 20-60 µM.

The target of data set [16] is NLR family CARD domain-containing protein 4 (Homo sapiens) (UniProt Q9NPP4). Put plainly: Inhibition of NLRC4 inflammasome in flagellin of Salmonella typhimurium-induced human THP-M cells assessed as inhibition of IL-1beta level at 20 to 60 uM pretreated for 24 hrs followed by stimulated with LPS by ELISA. It is filed as cell-based. Conditions: dose 20-60 µM.
A short description of data set [17]: Half life in Sprague-Dawley rat at 20 mg/kg, ip measured upto 720 mins by LC-MS/MS analysis. It is filed as ADME, organism-based. As to conditions: in vivo.

Chain of NLR family CARD domain-containing protein 4 (Homo sapiens) (Q9NPP4 whole entry, the tested form may be a part): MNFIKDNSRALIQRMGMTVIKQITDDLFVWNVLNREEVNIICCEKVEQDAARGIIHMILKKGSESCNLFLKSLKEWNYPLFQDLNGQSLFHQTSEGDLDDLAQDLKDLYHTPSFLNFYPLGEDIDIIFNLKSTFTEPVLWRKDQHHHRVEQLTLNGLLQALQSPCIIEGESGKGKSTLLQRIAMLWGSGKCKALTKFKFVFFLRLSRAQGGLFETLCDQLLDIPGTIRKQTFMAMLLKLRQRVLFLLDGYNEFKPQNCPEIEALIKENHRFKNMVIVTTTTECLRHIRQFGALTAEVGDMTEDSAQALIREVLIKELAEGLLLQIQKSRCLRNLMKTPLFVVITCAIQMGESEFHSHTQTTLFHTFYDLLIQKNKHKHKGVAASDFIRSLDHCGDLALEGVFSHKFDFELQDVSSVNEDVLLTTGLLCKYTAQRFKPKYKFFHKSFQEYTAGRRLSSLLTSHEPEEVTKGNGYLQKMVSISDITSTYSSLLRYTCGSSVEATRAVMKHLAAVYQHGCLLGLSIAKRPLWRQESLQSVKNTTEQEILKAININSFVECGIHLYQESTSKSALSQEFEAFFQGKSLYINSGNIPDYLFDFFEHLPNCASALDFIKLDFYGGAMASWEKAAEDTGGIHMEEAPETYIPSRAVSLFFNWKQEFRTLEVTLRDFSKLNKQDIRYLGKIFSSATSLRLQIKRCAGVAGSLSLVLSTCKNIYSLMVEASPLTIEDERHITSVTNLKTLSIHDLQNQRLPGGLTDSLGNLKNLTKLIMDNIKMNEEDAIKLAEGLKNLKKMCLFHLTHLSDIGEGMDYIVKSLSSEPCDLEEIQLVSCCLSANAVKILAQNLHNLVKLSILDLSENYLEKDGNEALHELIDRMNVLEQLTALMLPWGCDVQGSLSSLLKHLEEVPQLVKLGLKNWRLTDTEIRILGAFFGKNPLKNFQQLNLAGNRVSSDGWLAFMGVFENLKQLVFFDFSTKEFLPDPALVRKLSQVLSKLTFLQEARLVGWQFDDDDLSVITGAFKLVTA

Usually half-life stands for the time needed for the level to fall by half in the phase considered. In general, MRT last refers to a mean duration of stay, worked out from the concentration-time curve. In general, AUC refers to the area under the concentration-time curve, a measure of exposure. Read a low AUC as low exposure. As usually defined, the Tmax is the time from dosing to the highest level. For orientation: CL/F means clearance divided by bioavailability, as obtained after extravascular dosing. The bioavailability is dose-corrected exposure relative to a reference, in per cent. A word on the MRT inf: it is a mean duration of stay, worked out from the concentration-time curve. A word on the AUC(0-t): it is the area under the concentration-time curve up to a stated or last time point. In the case of `COCCCNC(=O)c1ccc(Cn2c(SCC3CCCCC3)nc3ccncc32)cc1`, the half-life was 128 min in data set [1] and 44.1 min in [17]. In data set [2], this molecule showed an MRT last at 12 h of 41.9 min. Further, the Vd/F worked out at 2.8 L/kg in [3] and 73.4 L/kg in data set [8]. For the same molecule, the outcome in the data set on Rattus norvegicus [4] and in the data set with Rattus norvegicus [12] was Active. In data set [5], the AUC worked out at 112685 ng·min/mL. Also, the Tmax in data set [6] is 16.7 min. Also, the inhibition result (in the data set on THP-M [7]; in [15]; in data set [16]) was “inactive” each time. Besides, in data set [9], the CL/F worked out at 410 mL/min/kg. In data set [10], the bioavailability was found to be 11.5%. In [11], this molecule showed an MRT inf of 44.5 min. The inhibition result in the data set with THP-M [13] was “Dose-Dependent Effect”. Besides, in data set [14], the AUC(0-t) at 12 h was 1860 ng·h/mL.
